Results on 28 compounds are retold here after ChEMBL document CHEMBL4483862, “Open-source discovery of chemical leads for next-generation chemoprotective antimalarials” (2018).

The experiment relates to Plasmodium berghei. Briefly: Luciferase/luciferin-expressing antifolate-resistant parasites were used to infect a culture of HepG2 cells that were pre-incubated with compounds. Infected hepatocytes emit light due to the luciferase reaction. Assay results are presented as the percent inhibition of light emission compared to control. […]. The experiment is classed as functional. Conditions: sporozoite; for IC90: read-out: LUCIFERASE INFECTION ASSAY - IC90.

Where [1] appears, read: read-out: LUCIFERASE INFECTION ASSAY - IC50.

pIC50: −log10 of the molar value. Bounds are passed on as bounds.

One may read the pIC50 as the IC50 on a negative log10 scale, so that one unit is a factor of ten. What is called IC90 is the concentration at which the effect reaches the 90% level. Consider `CCN(CC)S(=O)(=O)c1cc([N+](=O)[O-])ccc1NN=CC1C(=O)N(c2ccc(C)cc2)C(=O)c2ccccc21` (stereo unspecified), for which the IC90 is more than 10 µM. For the same compound, the pIC50 (FFLUC_HILL_SLOPE 3.56, FFLUC_R_SQUARED 0.6, HEPG2TOX_HILL_SLOPE 2.69, HEPG2TOX_R_SQUARED 0.936, PBLUC_HILL_SLOPE 15.5, PBLUC_R_SQUARED 0.0701, read-out: LUCIFERASE INFECTION ASSAY - IC50) is 5.01.
Regarding `Cn1c(Cc2ccccc2)ns/c1=N\C(=Nc1ccccc1)c1ccccc1`, the IC90 was more than 10 µM. For the same compound, the pIC50 under setting [1] was less than 5.00.
For `N#C/C(=C\c1ccc(O)cc1)c1nc(C(c2ccccc2)c2ccccc2)no1`, the IC90 is more than 10 µM. Moreover, the pIC50 (FFLUC_HILL_SLOPE 12.8, FFLUC_R_SQUARED 0.5, read-out: LUCIFERASE INFECTION ASSAY - IC50) is less than 5.00.
With `CN(C)c1ccc(CNC(=O)C2CCN(C(=O)NCc3ccco3)CC2)cc1`, the IC90 was more than 10 µM. Further, the pIC50 under setting [1] was less than 5.00.
As for `Nc1nc(Nc2cc(Cl)cc(Cl)c2)c2[nH]cnc2n1`, the IC90 turned out to be 8.62 µM. In addition, the pIC50 (PBLUC_HILL_SLOPE 2.21, PBLUC_R_SQUARED 0.753, read-out: LUCIFERASE INFECTION ASSAY - IC50) is 5.50.
In the case of `CN(C)c1ccc(Nc2nc(=O)cn[nH]2)cc1`, the IC90 is more than 14.3 µM. For the setting “PBLUC_HILL_SLOPE 0.727, PBLUC_R_SQUARED 0.391, read-out: LUCIFERASE INFECTION ASSAY - IC50”, the pIC50 was less than 4.84.
On to `Cc1ccc(C(C)C)c(OCCCNCCc2ccccc2)c1`, for which the IC90 was 9.99 µM. The pIC50 (HEPG2TOX_HILL_SLOPE 12.1, HEPG2TOX_R_SQUARED 0.387, PBLUC_HILL_SLOPE 24.3, PBLUC_R_SQUARED 0.56, read-out: LUCIFERASE INFECTION ASSAY - IC50) was 5.04.
On to `CCN1C(=O)N(CCc2ccccc2)C2(CCN(Cc3ccc(C)cc3)CC2)C1=O`, for which the IC90 is more than 8.14 µM. The pIC50 (PBLUC_HILL_SLOPE 4.45, PBLUC_R_SQUARED 0.239, read-out: LUCIFERASE INFECTION ASSAY - IC50) is 5.22.
On to `CC(C)Oc1ccc(Nc2nccc3[nH]c(-c4ccsc4)cc23)cc1`, for which the IC90 worked out at 4.09 µM. The pIC50 under setting [1] is 5.65.
Turning to `CCN1C(=O)N(Cc2cccc(OC)c2)C(=O)C12CCN(CC(c1ccccc1)c1ccccc1)CC2`, the IC90 is more than 6.63 µM. Where the note is “PBLUC_HILL_SLOPE 15.1, PBLUC_R_SQUARED 0.228, read-out: LUCIFERASE INFECTION ASSAY - IC50”, the pIC50 was 5.21.
Consider `O=C(Nc1cccc(C(F)(F)F)c1)Nc1cnn(-c2ccc(Cl)cc2)c1C(F)(F)F`, for which the IC90 was more than 7.35 µM. The pIC50 (PBLUC_HILL_SLOPE 0.579, PBLUC_R_SQUARED 0.471, read-out: LUCIFERASE INFECTION ASSAY - IC50) is 5.98.
Consider `O=C1C(Cl)=C(OC(CO)CO)C(=O)c2ccccc21`, for which the IC90 was 1.49 µM. Also, under “HEPG2TOX_HILL_SLOPE 4.19, HEPG2TOX_R_SQUARED 0.978, PBLUC_HILL_SLOPE 3.44, PBLUC_R_SQUARED 0.808, read-out: LUCIFERASE INFECTION ASSAY - IC50”, the pIC50 is 6.11.
For the compound `O=C(Nc1ccc(Oc2ccc([N+](=O)[O-])c3cnccc23)cc1)c1ccccc1`, the IC90 was more than 10 µM. Further, under “FFLUC_HILL_SLOPE 3.45, FFLUC_R_SQUARED 0.514, PBLUC_HILL_SLOPE 3.38, PBLUC_R_SQUARED 0.0773, read-out: LUCIFERASE INFECTION ASSAY - IC50”, the pIC50 is 5.13.
On to `CCC(C)(C)c1ccc(Oc2ccc(NC(=O)CSc3nnc(-c4ccccc4)[nH]3)cc2)cc1`, for which the IC90 was 7.78 µM. Also, the pIC50 (HEPG2TOX_HILL_SLOPE 9.08, HEPG2TOX_R_SQUARED 0.57, PBLUC_HILL_SLOPE 3.67, PBLUC_R_SQUARED 0.581, read-out: LUCIFERASE INFECTION ASSAY - IC50) was 5.37.
For the compound `CCC(=O)c1ccc(OCC(=O)N(C)C2CCc3ccccc32)cc1` (stereo unspecified), the IC90 was more than 10 µM. For the same compound, under setting [1], the pIC50 was less than 5.00.
In the case of `CC(C)c1ccccc1N(C(=O)c1cc2ccccc2o1)c1nc2ccccc2s1`, the IC90 is more than 10 µM. Moreover, the pIC50 (HEPG2TOX_HILL_SLOPE 3.13, HEPG2TOX_R_SQUARED 0.898, read-out: LUCIFERASE INFECTION ASSAY - IC50) is less than 5.00.
Consider `Cc1onc(-c2ccccc2)c1-c1csc(Nc2cc(C(F)(F)F)cc(C(F)(F)F)c2)n1`, for which the IC90 was determined as 3.88 µM. Also, for the setting “FFLUC_HILL_SLOPE 38.4, FFLUC_R_SQUARED 0.44, HEPG2TOX_HILL_SLOPE 9.25, HEPG2TOX_R_SQUARED 0.968, PBLUC_HILL_SLOPE 81.8, PBLUC_R_SQUARED 0.627, read-out: LUCIFERASE INFECTION ASSAY - IC50”, the pIC50 was 5.42.
On to `CC(=O)Nc1ccc(OCc2ccccc2C(F)(F)F)cc1`, for which the IC90 is 5.57 µM. For the same compound, for the setting “PBLUC_HILL_SLOPE 1.68, PBLUC_R_SQUARED 0.57, read-out: LUCIFERASE INFECTION ASSAY - IC50”, the pIC50 was 5.82.
With `Cc1onc(-c2ccccc2)c1C(=O)NCC1COCCO1` (stereo unspecified), the IC90 is more than 10 µM. Moreover, the pIC50 under setting [1] is less than 5.00.
Regarding `O=C(Nc1ccccc1)c1cc2sccc2s1`, the IC90 is more than 12.7 µM. Where the note is “HEPG2TOX_HILL_SLOPE 6.8, HEPG2TOX_R_SQUARED 0.21, read-out: LUCIFERASE INFECTION ASSAY - IC50”, the pIC50 was less than 4.90.
As to `CCOc1cc(/C=C/C(=O)c2ccc(C)cc2)cc(Br)c1OCC(=O)N(C)C`, the IC90 was 3.89 µM. Also, the pIC50 under setting [1] was 5.47.
Regarding `CN(C)S(=O)(=O)c1ccc(N2CCCC2)c(C(=O)Nc2nc(-c3ccccn3)cs2)c1`, the IC90 amounted to 9.7 µM. Further, the negative-log IC50 (pIC50) (HEPG2TOX_HILL_SLOPE 8.6, HEPG2TOX_R_SQUARED 0.463, PBLUC_HILL_SLOPE 5.89, PBLUC_R_SQUARED 0.378, read-out: LUCIFERASE INFECTION ASSAY - IC50) is 5.18.
Take `CCOc1ccc(C(=O)NCc2ccco2)cc1Cl`: the concentration for an effect of 90% (IC90) was more than 11.8 µM. Moreover, under “PBLUC_HILL_SLOPE 19.7, PBLUC_R_SQUARED 0.665, read-out: LUCIFERASE INFECTION ASSAY - IC50”, the pIC50 was 4.94.
Consider `COCc1[nH]n2c3cccc(=O)c-3nnc2c1-c1ccccc1`, for which the IC90 is 8.25 µM. For the same compound, the pIC50 (HEPG2TOX_HILL_SLOPE 2.72, HEPG2TOX_R_SQUARED 0.697, PBLUC_HILL_SLOPE 5.05, PBLUC_R_SQUARED 0.588, read-out: LUCIFERASE INFECTION ASSAY - IC50) is 5.27.
Take `N#Cc1cccc(CN2CCN3C(C(=O)Nc4ccc(Oc5ccccc5)cc4)=COC3=NC2=O)c1`: the IC90 was more than 10 µM. In addition, for the setting “HEPG2TOX_HILL_SLOPE 5.43, HEPG2TOX_R_SQUARED 0.0351, read-out: LUCIFERASE INFECTION ASSAY - IC50”, the pIC50 was less than 5.00.
Turning to `O=C(CCOc1ccc(F)cc1)Nc1cc(Cl)cc(Cl)c1`, the IC90 is more than 10.1 µM. The pIC50 (PBLUC_HILL_SLOPE 0.967, PBLUC_R_SQUARED 0.399, read-out: LUCIFERASE INFECTION ASSAY - IC50) is less than 5.00.
With `NNC(=O)c1cc2ccc3ccccc3c2s1`, the IC90 is more than 13.6 µM. The pIC50 under setting [1] was less than 4.87.
For `CC(=N)C(C#N)c1csc(Nc2cc(C)cc(C)c2)n1` (stereo unspecified), the IC90 is more than 10 µM. Under “FFLUC_HILL_SLOPE 2.53, FFLUC_R_SQUARED 0.471, read-out: LUCIFERASE INFECTION ASSAY - IC50”, the pIC50 is less than 5.00.
